Data as given in patent US9381143B2, “Use of substituted methoxyalkoxyphenylalkyl derivatives as preservative, preserving method, compounds and composition” (L'OREAL, priority 2010, dated 2016).

Key:
Experiment in all cases: Challenge Test (artificial contamination) of cosmetic formula
Type in all cases: cell-based
[1] = system: Pseudomonas aeruginosa (Pa) ATCC 19429; settings: 2% compound in cosmetic formula; inoculum approx. 10^6 CFU/g; 7 days at 22° C. in the dark; <200 CFU = sensitivity threshold
Procedure: (§1) The antimicrobial efficacy of a compound of formula (I) was evaluated by the Challenge Test or artificial contamination method.
(§2) The challenge test method consists of an artificial contamination of the sample with microbial strains from collection (bacteria, yeasts and moulds) and of an evaluation of the number of revivable microorganisms seven days after inoculation.
(§3) 5 pure cultures of microorganisms are used.
(§4) The gram−bacterial strains (Escherichia coli and Pseudomonas aeruginosa), the gram+bacterial strain (Enterococcus faecalis), the yeast strain (Candida albicans), and the mould strain (Aspergillus niger) are inoculated into subculturing medium, respectively the day before inoculation for the bacteria and the yeast, and 5 days before inoculation for the mould.
(§5) On the day of inoculation: • a suspension in tryptone salt diluent is prepared respectively for the bacteria and the yeast in such a way as to obtain, on a spectrophotometer, a suspension having an optical density between 35% and 45% of transmitted light at 544 nm; • for the mould, the spores are taken by washing the agar with 6 to 7 ml of harvesting solution and the suspension is recovered in a sterile flask or tube.
(§6) After having homogenized the microbial suspension, 0.2 ml of inoculum (the suspensions are used pure: between 1×10^8 and 3×10^8 CFU per ml) are placed in each pill bottle and the microbial suspension is completely homogenized in the 20 g of product (=cosmetic formula) using a spatula.
(§7) The amount of microorganisms present in the product corresponds, after homogenization, to a concentration of 10^6 microorganisms per gram of product, i.e. the inoculation at 1% of an inoculum containing 10^8 microorganisms per ml. After 7 or 14 days of contact time between the microorganisms and the product at 22° C.±2° C. and in the dark, ten-fold dilutions are carried out and the number of revivable microorganisms remaining in the product is counted.

[2] = system: Enterococcus faecalis (Ef) ATCC 33186; settings: 2% compound in cosmetic formula, inoculum approx. 10^6 CFU/g
Procedure: as §1, §2, §3, §4, §5, §6, §7

[3] = system: Aspergillus niger (An) ATCC 6275; settings: 2% compound in cosmetic formula, inoculum approx. 10^6 CFU/g
Procedure: as §1, §2, §3, §4, §5, §6, §7

[4] = system: Escherichia coli (Ec) ATCC 8739; settings: 2% compound in cosmetic formula; inoculum approx. 10^6 CFU/g; 7 days at 22° C. in the dark; <200 CFU = sensitivity threshold
Procedure: as §1, §2, §3, §4, §5, §6, §7

[5] = system: Candida albicans (Ca) ATCC 10231; settings: 2% compound in cosmetic formula; inoculum approx. 10^6 CFU/g; 7 days at 22° C. in the dark; <200 CFU = sensitivity threshold
Procedure: as §1, §2, §3, §4, §5, §6, §7

COc1ccc(CCC(C)=O)cc1OC
Number of CFU/gram of product at T = 7 days, P. aeruginosa [1]: <200 CFU/gram of product | Number of CFU/gram of product at T = 7 days, E. faecalis ([2]; 7 days at 22° C. in the dark): 7.3 · 10^5 CFU/gram of product | Number of CFU/gram of product at T = 14 days, E. faecalis ([2]; 14 days at 22° C. in the dark): 3.3 · 10^8 CFU/gram of product | Number of CFU/gram of product at T = 7 days, A. niger ([3]; 7 days at 22° C. in the dark): 1.4 · 10^6 CFU/gram of product | Number of CFU/gram of product at T = 14 days, A. niger ([3]; 14 days at 22° C. in the dark): 3.6 · 10^5 CFU/gram of product | Number of CFU/gram of product at T = 7 days, E. coli [4]: <200 CFU/gram of product | Number of CFU/gram of product at T = 7 days, C. albicans [5]: <200 CFU/gram of product
